This note sets out measurements from patent US20260256921A1, “BIFUNCTIONAL MOLECULES TO TARGET DEGRADATION OF TUMOR NECROSIS FACTOR” (Biohaven Therapeutics Ltd., priority 2023, published 2026).

A value given as a limit tells only on which side of the number the result lay.

Assay [1] deals with T1, Recombinant human ASGPR protein (Homo sapiens, UniProt P07306).
T1 construct: purchased R&D Systems 4394-AS
T1 sequence (P07306 1-291): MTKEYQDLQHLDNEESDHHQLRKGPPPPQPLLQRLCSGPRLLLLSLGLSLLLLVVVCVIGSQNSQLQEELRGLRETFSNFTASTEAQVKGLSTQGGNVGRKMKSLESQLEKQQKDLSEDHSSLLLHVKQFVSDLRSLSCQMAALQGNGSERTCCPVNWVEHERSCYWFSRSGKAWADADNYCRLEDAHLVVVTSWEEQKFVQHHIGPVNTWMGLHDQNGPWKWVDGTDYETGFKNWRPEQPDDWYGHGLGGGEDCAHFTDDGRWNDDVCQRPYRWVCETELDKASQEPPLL
Nature of the assay: GalNAc-PAA human ASGPR1 competition binding assay. As to conditions: competition with GalNAc-PAA-biotin 500 ng/ml. As for the experimental part:
Protocol. Recombinant human ASGPR protein (R&D Systems Catalog #4394-AS; Minneapolis, MN, USA) was reconstituted to 200 μg/ml in Assay Buffer (20 mM HEPES (TEKnova Catalog #H1030; Hollister, CA, USA), 150 mM NaCl (Promega Catalog #V4221; Madison, WI, USA), 1 mM CaCl2 (Alfa Aesar Catalog #J63122; Tewksbury, MA, USA)). Nunc-Immuno™ MicroWell™ 96 well solid plates (Sigma Catalog #M9410; Burlington, MA, USA) were coated with 300 ng of ASGPR protein per well by diluting the protein to 3 μg/ml in Assay Buffer and adding 100 μl to each well. A few wells were left without ASGPR protein for controls in which 100 μl of Assay Buffer were added. The plate was incubated overnight at 4° C. After overnight incubation, coating solution was discarded and the wells were blocked with 150 μl/well of Blocking Buffer (1% Bovine Serum Albumin (BSA) in Assay Buffer; Sigma Catalog #A3059-100G; Burlington, MA, USA) for 2 hours at 4° C. Frozen stock of GalNAc-PAA-biotin (GlycoNZ Catalog #GNZ-0031-BP, 1 mg/ml in Assay Buffer; Auckland, NZ) was thawed and diluted 1:1000 in Assay Buffer to create a 1000 ng/ml 2× working solution. Competitor compounds were reconstituted to 100 mM in DMSO. If compounds were insoluble at this concentration, they were further diluted in DMSO. Compounds were diluted 1 to 12.5 (10 μl DMSO stock diluted to 125 μl) in Assay Buffer, then 5 fold serially diluted. The DMSO concentration in the 2× working solution of the first well is 8%, for a final starting DMSO concentration of 4%. In a separate deep-well plate (NEST Catalog #503501; Woodbridge, NJ, USA), equal amounts of 1000 ng/ml GalNAc-PAA and serially diluted compounds were combined, for a final concentration of 500 ng/ml GalNAc-PAA and 4 mM compound (top concentration), assuming that the compound concentration of the DMSO stock solution was 100 mM. Plates with Blocking Buffer were removed from refrigerator and blocking solution was discarded. The wells were washed with 200 μl of Assay Buffer three times. After the last wash, plates were tapped dry on paper towels to remove excess liquid.
Next, 100 μl of GalNAc-PAA-biotin premixed with serially diluted compounds was added into each well. For control, several wells containing 500 ng/ml GalNAc-PAA-biotin were included. Plates were incubated for 2 hours at room temperature on an orbital shaker at 100 rpm. After incubation, compound solutions were discarded and each well was washed with 200 μl Assay Buffer three times. Streptavidin-HRP (R&D Systems catalogue #DY998; Minneapolis, MN, USA) was diluted 1:200 in Assay Buffer. 100 μl of the diluted Streptavidin-HRP was added to each well and incubated at room temperature for 45 minutes, protected from light. Streptavidin-HRP was then discarded and each well was washed with 200 μl of Assay Buffer three times. 3,3′,5,5′-Tetramethylbenzidine (TMB) Substrate color reagents A and B (R&D Systems catalog #DY999; Minneapolis, MN, USA) were mixed at a ratio of 1:1 and 100 μl was added to each well. After a 5 minute incubation, 50 μl of Stop Solution (R&D Systems catalog #DY994; Minneapolis, MN, USA) was added to each well. Plates were shaken for 10 seconds using the orbital shaker in the plate reader and read at 450 nm. […] Normalized data were analyzed using a nonlinear-fit of normalized data with a four-parameter sigmoidal dose-response variable slope model.

A further assay concerns the target human TNF-α (Homo sapiens, UniProt P01375). Briefly: TNF-α functional assay (hHEK-TNF-α SEAP reporter cells). It counts as cell-based. On the set-up: purchased ACROBiosystems TNA-H4211. As to conditions: hHEK-TNF-α cells, SEAP readout, TNF-α added at EC80 (1.034 pM), 18-24 hours; read-out: TNF-α Function IC50. From the text: Human HEK TNF-αcells (hHEK-TNF-α cells; InvivoGen Catalog #hkb-tnfdmyd; San Diego, CA, USA) are human embryonic kidney HEK293 cells that are stably transfected with the reporter gene, secreted alkaline phosphatase (SEAP). The hHEK-TNF-α cells allow for the detection of bioactive human and murine TNF-α via the activation of the NF-kB-inducible promoter and subsequent production of SEAP. Bioactivity of commercial human TNF-α protein (ActiveMax® Human TNF-α Protein, Tag Free, Low Endotoxin; available by ACROBiosystems Catalog #TNA-H4211; Newark, DE, USA) was determined in this reporter system.
Test molecules were dissolved in 100% DMSO and serially diluted by either 3-fold serial dilution or 4-fold serial dilution. […] TNF-α protein was added at the previously determined ECso. Plates containing cells, test molecules, and cytokine were incubated overnight for 18-24 hours at 37° C., 5% CO2.
The level of SEAP in the supernatant of each well was quantified using the Quanti Blue™ Solution (InvivoGen Catalog #rep-qba2; San Diego, CA, USA), a reagent with a colorimetric change in the presence of SEAP. To perform the Quanti-Blue assay: 20 L of the sample supernatant after the overnight 18-24 hour incubation was added to 180 L of Quanti Blue™ Reagent and incubated for 45 minutes at 37° C. […] Inhibition of TNF-α signaling was calculated utilizing GraphPad Prism (San Diego, CA, USA).

Chain of human TNF-α (P01375 77-233 limits assumed): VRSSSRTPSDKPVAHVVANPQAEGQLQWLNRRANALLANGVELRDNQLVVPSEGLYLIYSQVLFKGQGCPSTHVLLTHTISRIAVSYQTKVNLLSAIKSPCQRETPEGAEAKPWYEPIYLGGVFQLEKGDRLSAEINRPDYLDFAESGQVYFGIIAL

Turning to `CCC(=O)NC1COC(COCCOCCOCCOCCn2cc(COCC(COCc3cn(CCOCCOCCOCCOCC4OCC(NC(=O)CC)C(O)C4O)nn3)(COCc3cn(CCOCCOCCOCCOCC4OCC(NC(=O)CC)C(O)C4O)nn3)NC(=O)CNC(=O)CCOCCOCCC(=O)N3CCN(Cc4ccc(-c5c[nH]c6ccncc56)c(OCCc5ccc(-c6cccc7ccncc67)cc5)c4)CC3)nn2)C(O)C1O` (stereo not shown) [Compound 103], the Ki in assay [1] came out at 0.2 µM. In addition, the IC50 on human TNF-α is over 10000 µM.
For `CCC(=O)NC1COC(COCCOCCOCCOCCn2cc(COCC(COCc3cn(CCOCCOCCOCCOCC4OCC(NC(=O)CC)C(O)C4O)nn3)(COCc3cn(CCOCCOCCOCCOCC4OCC(NC(=O)CC)C(O)C4O)nn3)NC(=O)CNC(=O)CCC(=O)N3CCN(Cc4ccc(-c5c[nH]c6ccncc56)c(OCCc5ccc(-c6cccc7ccncc67)cc5)c4)CC3)nn2)C(O)C1O` (stereo not shown) [Compound 104], in that order: 0.2 µM and 1 µM.
Take `CCC(=O)NC1COC(COCCOCCOCCOCCn2cc(COCCNC(=O)CNC(=O)CCOCCOCCOCCOCCOCCOCCC(=O)N3CCN(Cc4ccc(-c5c[nH]c6ccncc56)c(OCCc5ccc(-c6cccc7ccncc67)cc5)c4)CC3)nn2)C(O)C1O` (stereo not shown) [Compound 105]: the Ki in assay [1] was 0.6 µM. Further, the IC50 at human TNF-α came out at 0.334 µM.
For `CCC(=O)N[C@H]1CO[C@H](COCCOCCOCCOCCn2cc(COCCNC(=O)CNC(=O)CCC(=O)N3CCN(Cc4ccc(-c5c[nH]c6ccncc56)c(OCCc5ccc(-c6cccc7ccncc67)cc5)c4)CC3)nn2)[C@H](O)[C@@H]1O` [Compound 106] the same measures were 1.1 µM and 0.356 µM.
Turning to `CCC(=O)N[C@H]1CO[C@H](COCCOCCOCCOCCn2cc(COCCNC(=O)CNC(=O)CCOCCOCCC(=O)N3CCN(Cc4ccc(-c5c[nH]c6ccncc56)c(OCCc5ccc(-c6cccc7ccncc67)cc5)c4)CC3)nn2)[C@H](O)[C@@H]1O` [Compound 107], the Ki in assay [1] came out at 0.8 µM. Besides, the concentration for half-maximal inhibition (IC50) at human TNF-α amounted to 0.319 µM.
